Experimental data taken from patent publication US6383520B1, “Fine powder of L-α-aminoadipic acid derivative, oral solid preparations containing the same, and method for treatment of bulk powders” (Chugai Seiyaku Kabushiki Kaisha, priority 1998, dated 2002).

Key:
[1] = Thermal analysis: differential scanning calorimetry, endotherm; type: physicochemical; details: DSC; for Endotherm: temperature rise 5° C./min; for endotherm compared with the unground bulk powder (in words): before and after the grinding treatment
Method: The finely ground powder of MX-68 sustaining the crystallinity according to the present invention means a finely ground powder of MX-68 which has, both before and after the grinding treatment, parts showing polarization when observed under a polarization microscope, and has an endotherm of from 25 to 50 mJ/mg, preferably from […] at an endothermic peak appearing, for example, at 185 to 195° C. in the differential scanning calorimetry as will be described Example 2.
A crystalline bulk powder of MX-68 obtained by the method described in Japanese Laid-Open Patent Publication No. 6-239863(A)) (manufactured by Chugai Pharmaceutical Co., Ltd.) and the finely ground powders of MX-68 obtained by the grinding methods described in Example 1 were thermally analyzed to thereby determine the differential scanning calories (DSC, temperature rise: 5° C./min). Then the endotherm (caused by the endothermic reaction occurring in association with the conversion of crystalline particles in the crystalline bulk powder into the amorphous state) was calculated.

[2] = Storage stability (60° C., 2 weeks); type: physicochemical; details: for Residual ratio: storage 60° C.; for storage stability after the grinding treatment (in words): 60° C.
Method: A comparison was made on the storage stability (60° C., 2 weeks) of the crystalline bulk powder of MX-68 obtained by the method described in Japanese Laid-Open Patent Publication No. 6-239863(A)) (manufactured by Chugai Pharmaceutical Co., Ltd.), the mortar-ground bulk powder and the centrifugal-ground bulk powder obtained in Example 1.

[3] = Dissolution test, method 2 (paddle method), Japanese Pharmacopoeia; type: physicochemical; details: compared with the amorphous bulk powder
Source text: Tablets of the following formula were produced by using the crystalline bulk powder of MX-68 obtained by the method described in Japanese Laid-Open Patent Publication No. 6-239863(A)) (manufactured by Chugai Pharmaceutical Co., Ltd.), an amorphous bulk powder and the centrifugal.-ground bulk powder obtained in Example 1. More particularly, MX-68, lactose, crystalline cellulose and croscarmellose sodium were dry-mixed. After adding water, the mixture was kneaded and granulated. Then the granulated matter was dried at 50° C., mixed with magnesium stearate, and press molded to give tablets of 6 mm in diameter. In accordance with the method 2 (paddle method) of the dissolution test as specified in Japanese Pharmacopoeia, these tablets were subjected to the dissolution test using 500 ml of JP official solution 1 at 37° C.

[4] = Pharmacokinetics after oral administration to dogs, MX-68 concentration in the blood; type: in vivo; details: 1 mg/kg
[5] = Average particle diameter by dry particle size distribution measurement (AEROSIZER mach 2); type: physicochemical; details: dry particle size distribution measurement after grinding
Source text: The average particle diameter of the finely ground powder of MX-68 in the present invention can be measured by using, for example, a dry particle size distribution measurement apparatus (AEROSIZER mach 2, manufactured by AMHERST PROCESS INSTRUMENTS, INC) as will be described in Example 1 hereinafter. The finely ground powder of MX-68 according to the present invention has an average particle diameter of from 5 to 25 μm. When the average particle diameter is less than 5 μm, the finely ground powder is liable to be charged with static electricity and thus there arises a high possibility of dusting and adhesion. When the average particle diameter exceeds 25 μm, on the other hand, it is feared that the solubility and/or content uniformity of MX-68 are adversely affected. It is preferable that the average particle diameter ranges from 8 to 15 μm, still preferably from 9 to 11 μm.
A crystalline bulk powder of MX-68 obtained by the method described in Japanese Laid-Open Patent Publication No. 6-239863(A)) (manufactured by Chugai Pharmaceutical Co., Ltd.) was manually ground in an agate mortar. Separately, the same bulk powder was ground with a centrifugal grinder (ZM-1, manufactured by Nippon Seiki Seisakusho) by using a screen (pore size: 0.2 mm) at 20,000 rpm. Separately, the same bulk powder was ground with a micro-labo jet mill (A-O Jet Mill, manufactured by Seishin Kigyo). The particle diameter of each finely ground powder of MX-68 thus obtained was measured by using a dry particle size distribution measurement apparatus (AEROSIZER mach 2, manufactured by AMHERST PROCESS INSTRUMENTS, INC) and the average particle diameter was determined. As a result, the average particle diameter could be controlled to 9 to 11 μm by each grinding method (Table 1).

| Compound | Endotherm [1] | Residual ratio [2] | solution speed (in words) [3] | bioavailability (in words) ([4]; compared with the amorphous bulk powder) | Average particle diameter [5] | endotherm compared with the unground bulk powder (in words) [1] | storage stability after the grinding treatment (in words) [2] | Residual ratio ([2]; listed as Motor-ground bulk powder) | absorbability (in words) ([4]; compared with the unground bulk powder) |
| --- | --- | --- | --- | --- | --- | --- | --- | --- | --- |
| Nc1nc(N)c2nc(CN3CCSc4cc(C(=O)N[C@@H](CCCC(=O)O)C(=O)O)ccc43)cnc2n1 [Unground bulk powder] | 33.5 mJ/mg | 95.3% | lower solution speed | lower bioavailability | – | – | – | – | – |
| Nc1nc(N)c2nc(CN3CCSc4cc(C(=O)N[C@@H](CCCC(=O)O)C(=O)O)ccc43)cnc2n1 [Mortar-ground bulk powder] | 22.3 mJ/mg | – | – | – | 9.3 μm | a decrease in the endotherm | a decrease in stability | 90.9% | – |
| Nc1nc(N)c2nc(CN3CCSc4cc(C(=O)N[C@@H](CCCC(=O)O)C(=O)O)ccc43)cnc2n1 [Centrifugal-ground bulk powder, N-(1-((2,4-diamino-6-pteridinyl)methyl)-3,4-dihydro-2H-1,4-benzothiazine-7-carbonyl)L-α-aminoadipic acid] | 32.8 mJ/mg | 96.3% | – | – | 11.4 μm | no change in the endotherm | sustained stability comparable to the unground bulk powder | – | – |
| Nc1nc(N)c2nc(CN3CCSc4cc(C(=O)N[C@@H](CCCC(=O)O)C(=O)O)ccc43)cnc2n1 [Jet mill-ground bulk powder, N-(1-((2,4-diamino-6-pteridinyl)methyl)-3,4-dihydro-2H-1,4-benzothiazine-7-carbonyl)L-α-aminoadipic acid] | 33.2 mJ/mg | – | – | – | 10.7 μm | no change in the endotherm | – | – | – |
| Nc1nc(N)c2nc(CN3CCSc4cc(C(=O)N[C@@H](CCCC(=O)O)C(=O)O)ccc43)cnc2n1 [amorphous bulk MX-68 powder, N-(1-((2,4-diamino-6-pteridinyl)methyl)-3,4-dihydro-2H-1,4-benzothiazine-7-carbonyl)L-α-aminoadipic acid] | – | – | – | – | – | – | – | – | higher absorbability |
